Source: US4950591A, “Membrane Na^+ channel protein and related therapeutic compounds” (priority 1987, dated 1990)

Key:
[1] = target: T1, purified Na^+ channel protein (Bos taurus, UniProt A5D7U4+F1MJW3+P55270); experiment: Amiloride inhibition of purified reconstituted channel; assay type: biochemical, bovine
T1 construct: purifying a membrane protein from bovine kidney cortex and bovine trachea epithelia apical membranes; from tissue
T1 sequence (P55270 1-650): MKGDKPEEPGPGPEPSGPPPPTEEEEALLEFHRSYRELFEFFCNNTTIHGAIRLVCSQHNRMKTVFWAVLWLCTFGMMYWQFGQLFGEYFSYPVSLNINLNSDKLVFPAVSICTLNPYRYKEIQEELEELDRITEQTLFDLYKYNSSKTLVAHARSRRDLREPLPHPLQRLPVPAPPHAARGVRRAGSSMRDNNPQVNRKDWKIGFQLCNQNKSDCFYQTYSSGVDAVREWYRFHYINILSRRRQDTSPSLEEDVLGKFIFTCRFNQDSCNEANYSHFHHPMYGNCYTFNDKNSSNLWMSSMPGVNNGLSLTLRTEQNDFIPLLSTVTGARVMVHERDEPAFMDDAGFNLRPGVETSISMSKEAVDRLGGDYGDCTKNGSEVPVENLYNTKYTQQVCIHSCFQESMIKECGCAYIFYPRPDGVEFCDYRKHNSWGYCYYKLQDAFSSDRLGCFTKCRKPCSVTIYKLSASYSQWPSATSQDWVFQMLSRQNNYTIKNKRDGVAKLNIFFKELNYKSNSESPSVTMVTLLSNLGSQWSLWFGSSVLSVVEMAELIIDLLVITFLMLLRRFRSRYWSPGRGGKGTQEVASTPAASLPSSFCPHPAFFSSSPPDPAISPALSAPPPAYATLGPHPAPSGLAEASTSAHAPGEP
T1 sequence (A5D7U4 1-641): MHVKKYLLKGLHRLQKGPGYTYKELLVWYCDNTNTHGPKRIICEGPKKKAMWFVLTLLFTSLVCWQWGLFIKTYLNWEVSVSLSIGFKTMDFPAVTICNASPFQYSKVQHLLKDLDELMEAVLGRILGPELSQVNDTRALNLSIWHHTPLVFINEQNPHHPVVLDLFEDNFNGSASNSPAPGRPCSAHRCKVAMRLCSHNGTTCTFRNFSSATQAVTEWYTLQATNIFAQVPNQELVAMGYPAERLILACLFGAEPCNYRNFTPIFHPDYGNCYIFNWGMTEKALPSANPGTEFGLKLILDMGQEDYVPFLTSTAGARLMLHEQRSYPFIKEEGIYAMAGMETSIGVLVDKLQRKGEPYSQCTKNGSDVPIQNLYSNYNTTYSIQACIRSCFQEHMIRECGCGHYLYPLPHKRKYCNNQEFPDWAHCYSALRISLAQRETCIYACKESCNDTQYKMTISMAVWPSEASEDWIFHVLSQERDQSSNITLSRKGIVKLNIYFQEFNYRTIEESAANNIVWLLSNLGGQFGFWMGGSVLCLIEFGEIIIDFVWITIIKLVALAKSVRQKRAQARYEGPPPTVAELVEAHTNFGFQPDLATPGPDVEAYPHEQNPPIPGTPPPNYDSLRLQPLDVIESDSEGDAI
T1 sequence (F1MJW3 1-652): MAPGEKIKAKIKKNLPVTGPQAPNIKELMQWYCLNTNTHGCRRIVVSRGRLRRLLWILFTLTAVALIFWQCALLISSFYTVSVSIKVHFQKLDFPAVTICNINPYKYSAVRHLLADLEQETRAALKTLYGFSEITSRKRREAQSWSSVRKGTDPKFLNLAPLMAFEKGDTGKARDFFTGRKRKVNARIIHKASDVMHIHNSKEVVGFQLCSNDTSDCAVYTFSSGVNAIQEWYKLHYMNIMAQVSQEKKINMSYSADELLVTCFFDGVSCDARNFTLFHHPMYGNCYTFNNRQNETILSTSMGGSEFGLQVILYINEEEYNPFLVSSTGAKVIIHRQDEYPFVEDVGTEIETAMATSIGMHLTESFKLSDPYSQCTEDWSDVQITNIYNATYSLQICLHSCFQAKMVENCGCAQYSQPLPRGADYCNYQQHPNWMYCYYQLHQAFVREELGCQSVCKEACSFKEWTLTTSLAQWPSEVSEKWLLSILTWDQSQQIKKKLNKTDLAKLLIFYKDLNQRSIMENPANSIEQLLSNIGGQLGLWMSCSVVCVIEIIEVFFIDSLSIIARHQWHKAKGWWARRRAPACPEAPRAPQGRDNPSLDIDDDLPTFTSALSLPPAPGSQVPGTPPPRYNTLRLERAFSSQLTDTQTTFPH
Protocol: By way of illustrative example, bovine kidney cortex cell membranes or bovine trachea apical cell membranes are collected and pooled until the pooled membranes contain about 100 mg of protein as determined by the Lowry method. The pooled membranes in 100 mM HEPES, pH 7.4, are centrifuged at 40,000 g for 30 minutes. The pelleted material was resuspended in 100 mM HEPES, pH 7.4, containing 3% sodium cholate (4.5-5.5 mg of membrane protein/3 ml of solution) containing in addition bacitracin (100 microgram/g), phenylmethylsulfonyl fluoride (0.5%) and iodoacetamide (1 mM). The mixture is chilled on ice for 60 minutes with occasional agitation, then centrifuged at 40,000 g for 30 minutes. The supernatant, containing the solubilized protein, may be purified immediately or frozen at -70° for later purification.
The solubilized protein preparation obtained from about 10 g of cell membrane is purified using 100 ml of the affinity gel described in Example 2. The protein solution and gel are stirred overnight in the cold. The gel is washed with 20 volumes of HEPES solution, pH 7.2, by filtration. The adsorbed protein is eluted with 10^-3 M amiloride in dilute saline containing 0.5% cholate by stirring for two hours. The elution was repeated and the combined eluates are dialyzed against 100 mM HEPES/1% sodium cholate for one week in the cold, changing buffers once or twice a day. […]

[2] = target: T2, Na^+ channel in crude membrane preparation (trachea epithelial) (Bos taurus, UniProt A5D7U4+F1MJW3+P55270); experiment: Amiloride inhibition of crude membrane preparation; assay type: biochemical, bovine
T2 construct: results for both the purified reconstituted channel protein and for the crude membrane preparation; from tissue; host or cells: trachea epithelial membranes, crude preparation (bovine)
T2 sequence (P55270 1-650): T1 sequence (P55270 1-650)
T2 sequence (A5D7U4 1-641): T1 sequence (A5D7U4 1-641)
T2 sequence (F1MJW3 1-652): T1 sequence (F1MJW3 1-652)

SMILES: N=C(N)NC(=O)c1nc(Cl)c(N)nc1N [amiloride, 3,5-diamino-N-(aminoiminomethyl)-6-chloropyrazinecarboxamide]
- IC50 ([1]; Amiloride, IC50 (micromolar), PURIFIED, Table I, trachea epithelial, purified reconstituted channel protein): 70 nM
- IC50 ([1]; IC50 (amiloride sensitivity of purified channel), purified channel): ~70 nM
- IC50 [2]: 100 nM
